Experimental data as given in the NIST ThermoML archive (doi:10.1016/j.fluid.2010.07.026).
Values joined by “and” are separate entries in the source; they are usually repeats but may differ in a detail not shown here. Identical values can stand only once. Numbers after ± are expanded uncertainties.

Experiments:
[1] = Capillary rise
[2] = wn = mass fraction of the nth substance listed; settings: Capillary rise

COC [dimethyl ether]
[1]
Settings | surface tension liquid-gas [mN/m]
278.16 K | 14.7 ± 0.4
283.21 K | 13.9 ± 0.4
288.17 K | 13.1 ± 0.4
293.15 K | 12.6 ± 0.4
298.1 K | 11.8 ± 0.4
303.13 K | 11 ± 0.4

COC [dimethyl ether] + CCC
[2]
Settings | surface tension liquid-gas
243.4 K, w1 = 0.4975 | 16 ± 0.4 mN/m
243.46 K, w1 = 0.6949 | 17.3 ± 0.4 mN/m and 17.2 ± 0.4 mN/m
243.56 K, w1 = 0.3007 | 15.2 ± 0.4 mN/m
248.19 K, w1 = 0.4975 | 15.4 ± 0.4 mN/m
248.27 K, w1 = 0.3007 | 14.5 ± 0.4 mN/m
248.43 K, w1 = 0.6949 | 16.7 ± 0.4 mN/m and 16.6 ± 0.4 mN/m
253.08 K, w1 = 0.3007 | 13.9 ± 0.4 mN/m
253.09 K, w1 = 0.4975 | 14.7 ± 0.4 mN/m
253.23 K, w1 = 0.6949 | 15.9 ± 0.4 mN/m and 15.8 ± 0.4 mN/m
258.34 K, w1 = 0.6949 | 15.2 ± 0.4 mN/m
258.38 K, w1 = 0.4975 | 13.9 ± 0.4 mN/m and 14 ± 0.4 mN/m
258.42 K, w1 = 0.3007 | 13.1 ± 0.4 mN/m
263.11 K, w1 = 0.4975 | 13.4 ± 0.4 mN/m
263.16 K, w1 = 0.6949 | 14.4 ± 0.4 mN/m
263.33 K, w1 = 0.3007 | 12.4 ± 0.4 mN/m
268.05 K, w1 = 0.3007 | 11.8 ± 0.4 mN/m
268.16 K, w1 = 0.4975 | 12.7 ± 0.4 mN/m
268.16 K, w1 = 0.6949 | 13.7 ± 0.4 mN/m
273.14 K, w1 = 0.3007 | 11.1 ± 0.4 mN/m
273.15 K, w1 = 0.6949 | 12.9 ± 0.4 mN/m
273.16 K, w1 = 0.4975 | 11.9 ± 0.4 mN/m and 12 ± 0.4 mN/m
278.13 K, w1 = 0.3007 | 10.5 ± 0.4 mN/m
278.15 K, w1 = 0.4975 | 11.3 ± 0.4 mN/m
278.16 K, w1 = 0.6949 | 12.3 ± 0.4 mN/m
283.13 K, w1 = 0.3007 | 9.8 ± 0.4 mN/m
283.16 K, w1 = 0.4975 | 10.6 ± 0.4 mN/m
283.16 K, w1 = 0.6949 | 11.6 ± 0.4 mN/m
288.12 K, w1 = 0.3007 | 9.1 ± 0.4 mN/m
288.15 K, w1 = 0.4975 | 10 ± 0.4 mN/m
288.15 K, w1 = 0.6949 | 11 ± 0.4 mN/m and 11.1 ± 0.4 mN/m
293.11 K, w1 = 0.3007 | 8.4 ± 0.4 mN/m and 8.5 ± 0.4 mN/m
293.13 K, w1 = 0.4975 | 9.3 ± 0.4 mN/m
293.17 K, w1 = 0.6949 | 10.4 ± 0.4 mN/m
298.08 K, w1 = 0.3007 | 7.8 ± 0.4 mN/m and 7.9 ± 0.4 mN/m
298.09 K, w1 = 0.4975 | 8.7 ± 0.4 mN/m
298.1 K, w1 = 0.6949 | 9.6 ± 0.4 mN/m
303.12 K, w1 = 0.4975 | 8 ± 0.4 mN/m
303.15 K, w1 = 0.3007 | 7 ± 0.4 mN/m and 7.1 ± 0.4 mN/m
303.17 K, w1 = 0.6949 | 9.1 ± 0.4 mN/m
308.08 K, w1 = 0.4975 | 7.4 ± 0.4 mN/m
308.11 K, w1 = 0.3007 | 6.5 ± 0.4 mN/m
308.11 K, w1 = 0.6949 | 8.5 ± 0.4 mN/m and 8.4 ± 0.4 mN/m
313.17 K, w1 = 0.3007 | 5.9 ± 0.4 mN/m
313.17 K, w1 = 0.4975 | 6.6 ± 0.4 mN/m and 6.7 ± 0.4 mN/m
313.18 K, w1 = 0.6949 | 7.7 ± 0.4 mN/m
318.13 K, w1 = 0.3007 | 5.3 ± 0.4 mN/m
318.13 K, w1 = 0.4975 | 6.1 ± 0.4 mN/m
318.16 K, w1 = 0.6949 | 7.1 ± 0.4 mN/m
323.17 K, w1 = 0.3007 | 4.8 ± 0.4 mN/m
323.17 K, w1 = 0.4975 | 5.5 ± 0.4 mN/m
323.17 K, w1 = 0.6949 | 6.5 ± 0.4 mN/m and 6.4 ± 0.4 mN/m
328.12 K, w1 = 0.3007 | 4.2 ± 0.4 mN/m
328.13 K, w1 = 0.4975 | 4.9 ± 0.4 mN/m and 5 ± 0.4 mN/m
328.14 K, w1 = 0.6949 | 5.9 ± 0.4 mN/m and 5.8 ± 0.4 mN/m
333.12 K, w1 = 0.3007 | 3.7 ± 0.4 mN/m
333.13 K, w1 = 0.6949 | 5.3 ± 0.4 mN/m and 5.2 ± 0.4 mN/m
333.14 K, w1 = 0.4975 | 4.3 ± 0.4 mN/m

CCC [propane]
[1]
Settings | surface tension liquid-gas [mN/m]
278.18 K | 9.5 ± 0.4
283.18 K | 8.9 ± 0.4
288.19 K | 8.3 ± 0.4
293.18 K | 7.7 ± 0.4
298.1 K | 7.1 ± 0.4
303.18 K | 6.4 ± 0.4
